The source of these data is patent publication US9080220B2 (priority 2006, dated 2015).

This assay has as its system inflammatory hyperalgesia induced by carrageenan on a rat's paw. Set-up: species or system rat (male Sprague Dawley). The note with it: in vivo, ip.

Where two headings read alike, the source gives them in different places.

As to `CN1CC[C@]23c4c5ccc(O)c4O[C@H]2[C@@H](O)C=C[C@H]3[C@H]1C5` [morphine], the “protection against hyperalgesia induced by carrageenan” value (0.3 mg/kg) is recorded as “does not induce statistically significant protection”. In addition, the “increase of pain threshold following a mechanical stimulus applied to the rats' paws” value was found to be 65% (1 mg/kg) and 97% (3 mg/kg).
